Test results from paper PMC10999085, “Synthesis, anticancer evaluation, molecular docking and ADME study of novel pyrido[4ʹ,3ʹ:3,4]pyrazolo[1,5-a]pyrimidines as potential tropomyosin receptor kinase A (TrKA) inhibitors” (BMC Chemistry, 2024).

Tested on: HepG2 cells
Test: Annexin V-FITC apoptosis assay
Format: cell-based, human
Details: for Apoptosis Early / Apoptosis Late / Necrosis: HepG2, 48 h, Annexin V-FITC/PI; for increase of early apoptosis ratio / increase of late apoptosis rate: HepG2, compared with untreated control cells
Description: HepG-2 cells were harvested and incubated with compounds 7b, 15b, 16a and 16c separately for 48 h. Then, the cells were collected and washed with PBS two successive times followed by centrifugation. After that, the cells were treated with Annexin V-FITC and propidium iodide (PI) using the apoptosis detection kit (BD Biosciences and Annexin V-FITC and PI binding were analyzed by a flow cytometer.
Early and late apoptosis was determined after treatment of HepG2 cells with compounds 7b, 15b, 16a and 16c compared with untreated control cells. The late apoptosis rate increased by about 13, 20, 4 and 3 times, respectively, showing a higher efficiency than the early apoptosis ratio 5, 2, 8 and 6 times, respectively.
As mentioned above, HepG-2 cells were collected and incubated separately with compounds 7b, 15b, 16a and 16c for 48 hr. Cells were then collected and washed twice consecutively with PBS and centrifuged. After that, the cells were treated with Annexin V-FITC and propidium iodide (PI) using an apoptosis detection kit (BD Biosciences, San Jose, CA) according to the manufacturer's instructions. The biding of Annexin V-FITC and PI was analyzed by ﬂow cytometer.

COc1ccc(C=C2C(=O)NC(=O)c3c2nn2c(C)cc(C)nc32)cc1 [Compound 7b]
Apoptosis Early: 5.71% | Apoptosis Late: 13.72% | Necrosis: 5.46% | apoptosis-inducing effect (HepG2, as stated in the abstract): 34.70% | increase of early apoptosis ratio: 5 times | increase of late apoptosis rate: about 13 times

Cc1cc(O)n2nc3c(c2n1)C(=O)NC(=O)C3=NNc1ccccc1 [Compound 16a, 4-Hydroxy-2-methyl-7-(2-phenylhydrazono)pyrido[4ʹ,3ʹ:3,4]pyrazolo[1,5-a]pyrimid-ine-8,10(7H,9H)-dione]
Apoptosis Early: 8.26% | Apoptosis Late: 4.32% | Necrosis: 2.75% | increase of early apoptosis ratio: 8 times | increase of late apoptosis rate: ~4 times

COc1ccc(NN=C2C(=O)NC(=O)c3c2nn2c(O)cc(C)nc32)cc1 [Compound 16c, 4-Hydroxy-7-(2-(4-methoxyphenyl)hydrazono)-2-methylpyrido[4ʹ,3ʹ:3,4]pyrazolo[1,5-a]pyrimidine-8,10(7H,9H)-dione]
Apoptosis Early: 6.31% | Apoptosis Late: 3.20% | Necrosis: 2.56% | increase of early apoptosis ratio: 6 times | increase of late apoptosis rate: ~3 times
